In article PMC7643960 (PLoS ONE, 2020):

What was measured:
Format in all cases: cell-based, horse
[1] = system: primary EMM cells MelDuWi; test: crystal violet staining assay (CVS), proliferation; conditions: for IC50: mean (95% CI)
Protocol: (§1) All cells used for the experiments originate from different horses. Primary EMM cells (MelDuWi) and primary equine dermal fibroblasts (PriFi1, PriFi2) belong to the cell culture stock of the Clinic for Horses, University of Veterinary Medicine Hannover, Foundation, Hannover, Germany.
(§2) The proliferation assay was performed as published. […] Control cells were treated with medium only. The proportion of cells treated relative to untreated controls was determined by crystal violet staining and photometric absorbance measurement at the incubation time points mentioned above. Proliferation assays were performed in six to eight biological replicates with two technical replicates for each combination of cell type, incubation time and compound concentration.
(§3) Technical duplicates with a coefficient of variation of more than 20% were excluded from the cell assay analysis. […] Additional statistical data analysis was conducted with R 3.5.1.. A generalized additive model was fitted for each test (MTS and CVS) and cell type comparison (primary EMM cells and fibroblasts, and primary ES cells and fibroblasts) using the ‘mgcv’ package. Compound concentrations and the duration of incubation were modeled as tensor product smooth interacting with compound and cell line. Cell passage was added as a random effect. An appropriate distribution was selected by the visual inspection of residuals. The p-values were obtained by performing a Wald test for each parameter. Statistical significance was set at 0.05.

primary EMM cells eRGO1 [2] = test: crystal violet staining assay (CVS), proliferation; conditions: for IC50: mean (95% CI)
Protocol: as §1, §2, §3

primary ES cells sRGO1 [3] = test: crystal violet staining assay (CVS), proliferation; conditions: for IC50: mean (95% CI)
Protocol: as §1, §2, §3

primary ES cells sRGO2 [4] = test: crystal violet staining assay (CVS), proliferation; conditions: for IC50: mean (95% CI)
Protocol: as §1, §2, §3

[5] = system: primary equine dermal fibroblasts PriFi1; test: crystal violet staining assay (CVS), proliferation; conditions: for IC50: mean (95% CI)
Protocol: as §1, §2, §3

[6] = system: primary equine dermal fibroblasts PriFi2; test: crystal violet staining assay (CVS), proliferation; conditions: for IC50: mean (95% CI)
Protocol: as §1, §2, §3

[7] = system: primary EMM cells MelDuWi; test: MTS cytotoxicity assay; conditions: for IC50: mean (95% CI)
Protocol: as §1
(§4) The cytotoxicity of the compounds was assessed by the CellTiter 96® AQueous One Solution Cell Proliferation Assay (MTS) (Promega GmbH, Mannheim, Germany) as reported. In brief, in order to reach cell confluence within 48 h, cells were seeded into 96-well plates in adequate densities (MelDuWi 30,000 cells/well; PriFi1, PriFi2, eRGO1 20,000 cells/well; sRGO1and sRGO2 15,000 cells/well). […] The formazan dye generated by the metabolic active cells was quantified photometrically. Cytotoxicity assays were performed in six to nine biological replicates with two technical replicates for each combination of cell type, incubation time and compound concentration.
as §3

primary EMM cells eRGO1 [8] = test: MTS cytotoxicity assay; conditions: for IC50: mean (95% CI)
Protocol: as §1, §4, §3

primary ES cells sRGO1 [9] = test: MTS cytotoxicity assay; conditions: for IC50: mean (95% CI)
Protocol: as §1, §4, §3

primary ES cells sRGO2 [10] = test: MTS cytotoxicity assay; conditions: for IC50: mean (95% CI)
Protocol: as §1, §4, §3

[11] = system: primary equine dermal fibroblasts PriFi1; test: MTS cytotoxicity assay; conditions: for IC50: mean (95% CI)
Protocol: as §1, §4, §3

[12] = system: primary equine dermal fibroblasts PriFi2; test: MTS cytotoxicity assay; conditions: for IC50: mean (95% CI)
Protocol: as §1, §4, §3

EMM cells MelDuWi = test: cell cycle investigation by flow cytometry (propidium iodide); conditions: double IC50 concentration
Protocol: (§5) Approximately 7.5 × 10^5 cells (MelDuWi) and 1.0 × 10^6 cells (PriFri2 and sRGO2) were seeded in 25 cm^2 cell culture flasks. […] Following 24 and 48 h of incubation, the cells were harvested by mild trypsinization and washed twice with phosphate-buffered saline (PBS) buffer (containing Mg^2+ and Ca^2+). Cells (1.0 × 10^6) were fixed with ethanol (70%, -20°C, for 24 h). After discarding the ethanol, the cells were washed in 1 mL PBS buffer (containing Mg^2+ and Ca^2+) and were centrifuged. The cell pellet was resuspended in 1 mL of staining PBS buffer (containing Mg^2+ and Ca^2+, 10 μg/mL RNASe [Thermofisher] and 15 μg/mL propidium iodide [Sigma-Aldrich, Munich, Germany]) and was incubated for 30 min at room temperature. Analyses were performed using the Attune® FACS machine (Life Technologies, Darmstadt, Germany) collecting data from the BL-2A channel. Doublet cells were excluded from the measurements by plotting BL-2A against BL-2H. A total of 20,000 events were collected for each cell cycle distribution. Each sample was measured in duplicate.

[13] = system: equine dermal fibroblasts PriFri2; test: as above; conditions: double IC50 concentration
Protocol: as §5

C=C(C)[C@@H]1CC[C@]2(C(=O)OCC(N)(CO)CO)CC[C@]3(C)[C@H](CC[C@@H]4[C@@]5(C)CC[C@H](OC(C)=O)C(C)(C)[C@@H]5CC[C@]43C)[C@@H]12 [NVX-207, 3-acetyl-betulinic acid-2-amino-3-hydroxy-2-hydroxymethyl-propanoate]
IC50 ([1]; 5 h): 20 µM | IC50 ([1]; 24 h): 16 µM | IC50 ([1]; 48 h): 12 µM | IC50 ([1]; 96 h): 4 µM | NVX-207 exceeded BBSs' antiproliferative effects ([1]; after 48 h, CVS): ~3 times | IC50 (primary EMM cells eRGO1 [2]; eRGO1, 5 h): 10 µM | IC50 (primary EMM cells eRGO1 [2]; eRGO1, 24 h): 5 µM | IC50 (primary EMM cells eRGO1 [2]; eRGO1, 48 h): < 1 µM | IC50 (primary EMM cells eRGO1 [2]; eRGO1, 96 h): < 1 µM | NVX-207 exceeded BBSs' antiproliferative effects (primary EMM cells eRGO1 [2]; eRGO1, after 48 h, CVS): about 25 times | IC50 (primary ES cells sRGO1 [3]; sRGO1, 5 h): 7 µM | IC50 (primary ES cells sRGO1 [3]; sRGO1, 24 h): 7 µM | IC50 (primary ES cells sRGO1 [3]; sRGO1, 48 h): < 1 µM | NVX-207 exceeded BBSs' antiproliferative effects (primary ES cells sRGO1 [3]; sRGO1, after 48 h, CVS): about 23 times | IC50 (primary ES cells sRGO2 [4]; sRGO2, 5 h): 6 µM | IC50 (primary ES cells sRGO2 [4]; sRGO2, 24 h): < 1 µM | IC50 (primary ES cells sRGO2 [4]; sRGO2, 48 h): < 1 µM | NVX-207 exceeded BBSs' antiproliferative effects (primary ES cells sRGO2 [4]; sRGO2, after 48 h, CVS): ~29 times | IC50 ([5]; PriFi1, 5 h): 11 µM | IC50 ([5]; PriFi1, 24 h): 4 µM | IC50 ([5]; PriFi1, 48 h): 2 µM | IC50 ([5]; PriFi1, 96 h): < 1 µM | NVX-207 exceeded BBSs' antiproliferative effects ([5]; PriFi1, after 48 h, CVS): about 23 times | IC50 ([6]; PriFi2, 5 h): 14 µM | IC50 ([6]; PriFi2, 24 h): 8 µM | IC50 ([6]; PriFi2, 48 h): 7 µM | IC50 ([6]; PriFi2, 96 h): < 1 µM | NVX-207 exceeded BBSs' antiproliferative effects ([6]; PriFi2, after 48 h, CVS): ~6 times | IC50 ([7]; 24 h): 18 µM | IC50 ([7]; 48 h): 15 µM | IC50 ([7]; 96 h): 8 µM | times more cytotoxic than BBS ([7]; after 48 h, MTS): ~3 times | IC50 (primary EMM cells eRGO1 [8]; eRGO1, 5 h): 9 µM | IC50 (primary EMM cells eRGO1 [8]; eRGO1, 24 h): 7 µM | IC50 (primary EMM cells eRGO1 [8]; eRGO1, 48 h): 4 µM | IC50 (primary EMM cells eRGO1 [8]; eRGO1, 96 h): < 1 µM | times more cytotoxic than BBS (primary EMM cells eRGO1 [8]; eRGO1, after 48 h, MTS): ~8 times | IC50 (primary ES cells sRGO1 [9]; sRGO1, 5 h): 9 µM | IC50 (primary ES cells sRGO1 [9]; sRGO1, 24 h): 4 µM | IC50 (primary ES cells sRGO1 [9]; sRGO1, 48 h): 2 µM | times more cytotoxic than BBS (primary ES cells sRGO1 [9]; sRGO1, after 48 h, MTS): about 11 times | IC50 (primary ES cells sRGO2 [10]; sRGO2, 5 h): 8000 nM | IC50 (primary ES cells sRGO2 [10]; sRGO2, 24 h): 3000 nM | IC50 (primary ES cells sRGO2 [10]; sRGO2, 48 h): 1000 nM | times more cytotoxic than BBS (primary ES cells sRGO2 [10]; sRGO2, after 48 h, MTS): about 25 times | IC50 ([11]; PriFi1, 5 h): 11 µM | IC50 ([11]; PriFi1, 24 h): 4 µM | IC50 ([11]; PriFi1, 48 h): 1 µM | IC50 ([11]; PriFi1, 96 h): < 1 µM | times more cytotoxic than BBS ([11]; PriFi1, after 48 h, MTS): ~34 times | IC50 ([12]; PriFi2, 5 h): 20 µM | IC50 ([12]; PriFi2, 24 h): 7 µM | IC50 ([12]; PriFi2, 96 h): 4 µM | times more cytotoxic than BBS ([12]; PriFi2, after 48 h, MTS): ~9 times | Cell cycle percentage G1/G0 (EMM cells MelDuWi; 24 h): 77,4% | Cell cycle percentage M (EMM cells MelDuWi; 24 h): 0,8% | Cell cycle percentage S (EMM cells MelDuWi; 24 h): 14,4% | Cell cycle percentage SubG1 (EMM cells MelDuWi; 24 h): 7,1% | Cell cycle percentage G1/G0 (EMM cells MelDuWi; 48 h): 26,8% | Cell cycle percentage M (EMM cells MelDuWi; 48 h): 0,3% | Cell cycle percentage S (EMM cells MelDuWi; 48 h): 12,9% | Cell cycle percentage G1/G0 ([13]; PriFri2, 24 h): 43,1% | Cell cycle percentage M ([13]; PriFri2, 24 h): 1,3% | Cell cycle percentage S ([13]; PriFri2, 24 h): 10,8% | Cell cycle percentage SubG1 ([13]; PriFri2, 24 h): 44,1% | Cell cycle percentage G1/G0 ([13]; PriFri2, 48 h): 14,8% | Cell cycle percentage M ([13]; PriFri2, 48 h): 0,1% | Cell cycle percentage S ([13]; PriFri2, 48 h): 2,9% | Cell cycle percentage SubG1 ([13]; PriFri2, 48 h): 81,9%
